Measured values reported in publication PMC8966664 (Frontiers in Pharmacology, 2022).

Test system: RTS-induced liver damage
Assay: Histological examination (H&E) and scoring of liver damage, modified DeLeve's system
Assay type: in vivo, Sprague Dawley rats
Design: key to Central vein endothelial damage / Sinusoidal hemorrhage / Sinusoidal dilation / Coagulative necrosis / Apoptotic bodies / Subendothelial fibrosis / Sinusoid fibrosis / Subendothelial hemorrhage: 0-absent; 1-mild; 2-moderate; 3-severe
Conditions: rats
Experimental: EX and GA were dissolved in distilled water at 37°C for oral administration with the dosage of EX and GA as 500 mg/kg and 50 mg/kg. […] RTS was given following the last dose of distilled water/GA/EX. Detailed dosage regimens are described in Supplementary Figure S2. All rats were sacrificed at 48 h after the last dosing. Serum and liver samples were collected and stored at −80°C until use.
The largest lobe of the liver was sliced, fixed in 10% buffered-neutral formalin for 24 h, and embedded in wax. Sections of 5 µm in thickness were subjected to hematoxylin and eosin staining before being examined. Liver injury (necrosis, endothelial cell damage, and hemorrhage) was evaluated with a LEICA DM5000B Microscope (Leica, Heidelberg, Germany).
Protective effects of EX and GA on RTS-induced hepatotoxicity were also evaluated by histopathological examination. […] The damage of sinusoidal endothelial cells was further measured by the immunofluorescence of RECA-1. […] The degrees of hemorrhage, sinusoidal dilation, and necrosis were assessed and scored (Table 2) according to a modified DeLeve’s system ([Deleve et al., 1999]) as summarized in Supplementary Table S3.

[1] = multiple dose (EX 500 mg/kg/day or GA 50 mg/kg/day, 5 consecutive days) + RTS 40 mg/kg, 48 h after last dosing
[2] = single dose (EX 500 mg/kg or GA 50 mg/kg) + RTS 40 mg/kg, 48 h after last dosing

In the case of `CC1(C)[C@@H](O)CC[C@]2(C)[C@H]3C(=O)C=C4[C@@H]5C[C@@](C)(C(=O)O)CC[C@]5(C)CC[C@@]4(C)[C@]3(C)CC[C@@H]12` [GA, 18β-glycyrrhetinic acid], the Apoptotic bodies (EX, GA or RTS alone) is reported as 0, the “Central vein endothelial damage” value (EX, GA or RTS alone) is reported as 0 and the Coagulative necrosis (EX, GA or RTS alone) is reported as 0. For the same compound, the “Overall (sum of the scores from all individual parameters)” value (“Overall” for short) (EX, GA or RTS alone) was 0, the Sinusoid fibrosis (EX, GA or RTS alone) was 0 and the Sinusoidal dilation (EX, GA or RTS alone) was 0. For the same compound, the Sinusoidal hemorrhage (EX, GA or RTS alone) was 0, the Subendothelial fibrosis (EX, GA or RTS alone) was 0 and the Subendothelial hemorrhage (EX, GA or RTS alone) was 0. The “RTS-induced hemorrhage and necrosis” value (both single and multiple doses + RTS) was “significantly ameliorated”, the Apoptotic bodies [1] was 0 and the “Central vein endothelial damage” value [1] was 1. For the same compound, the Coagulative necrosis [1] was 0, the “Overall” value [1] was 2-5 and the Sinusoid fibrosis [1] was 0. For the same compound, the Sinusoidal dilation [1] was 1-2, the Sinusoidal hemorrhage [1] was 0-1 and the Subendothelial fibrosis [1] was 0. The Subendothelial hemorrhage [1] was 0-1, the Apoptotic bodies [2] was 0 and the “Central vein endothelial damage” value [2] was 1. The Coagulative necrosis [2] was 1, the “Overall” value [2] was 6-7 and the Sinusoid fibrosis [2] was 0. The Sinusoidal dilation [2] was 2, the Sinusoidal hemorrhage [2] was 1 and the Subendothelial fibrosis [2] was 0. The Subendothelial hemorrhage [2] was 1-2 and the “histopathological examination of liver” value (substance alone) was “No obvious liver damage”.
